Patent publication US11931327B2, “Drug for retinal degenerative disease associated with photoreceptor degeneration” (Daiichi Sankyo Company, Limited, priority 2017, dated 2024)

Tests used:
[1] = system: transgenic zebrafish Tg (rho: NTR-NanoLuc, my17: DsRed2); assay: animal or person; conditions: for rod-cell regeneration induction activity compared to the DMSO control: Examples 3 and 4, TTNPB 0.3, 1, 3, 10 and 30 μM, N=4, RA and BMS493 N=8, Dunnett's test; for EC50: Danio rerio, 48 h, read-out: EC50 of rod-cell regeneration induction (Activation (% of control) 50%); for rod-cell regeneration induction activity: Example 6, various RAR agonists
From the text: First, the present inventors constructed a model for evaluating induction of rod cell regeneration. […] Transgenic zebrafish Tg (rho: NTR-NanoLuc, my17: DsRed2), in which a fluorescent protein, DsRed2, which is cardiac-tissue specifically expressed by cardiomyocyte-specific my17 promoter, can be simply detected by using dsRed2 as a marker under a fluorescence stereomicroscope. In the transgenic zebrafish, in addition to cardiac tissue specific expression of DsRed2, a reductase, i.e., nitroreductase (NTR), and a photoprotein, i.e., NanoLuc fusion protein (NTR-NanoLuc), are expressed by a rod-cell specific rho promoter, in a rod-cell specific manner. […] However, if, a prodrug, metronidazole, is added, non-toxic metronidazole is converted to a toxic radical by NTR. […] After rod cells are ablated by treatment with metronidazole, the transgenic zebrafish were washed with rearing water to remove the toxic radical. […] In the transgenic zebrafish, rod cells can be quantitatively determined by measuring the amount of luminescence derived from rod-cell-specific NanoLuc expression. After the rod cells are ablated, the transgenic zebrafish are exposed to a test compound. The activity of the test compound to induce rod-cell regeneration can be quantitatively evaluated by measuring the amount of luminescence derived from NanoLuc and specific to rod cells.
1) On the day before collection of eggs, a pair of male and female zebrafish, i.e., a transgenic fish Tg (rho: NTR-NanoLuc, my17: DsRed2) and a wild type, were placed in a tank for mating and isolated by a divider.
2) The next morning (8:00-11:00), the divider was removed to allow them to mate with each other. Fertilized eggs were collected. In the evening (16:00-18:00) of the same day, only normally developed fertilized eggs were screened and raised in a plate for growth.
3) Day 3 after fertilization, juvenile fish were transferred to rearing water, which contained 10 mM metronidazole (Sigma-Aldrich, Japan) and 1% DMSO (Wako Pure Chemical Industries Ltd.), (prepared by dissolving 60 mg of instant ocean (Napco Limited (Japan)) in 1 L of distilled water), and raised in dark conditions for 24 hours. In this manner, ablation was specifically applied to the rod cells of the juvenile fish. In contrast, non-ablated juvenile fish, which were to be used as a control, were transferred to a tank containing rearing water, which contained a 1% DMSO solution, and raised.
5) Ablated juvenile fish of 4 days after fertilization were washed well with Egg water and dispensed in wells of the assay plate containing a compound together with 100 μL of Egg water, such that 2 juvenile fish individuals were present per well.
6) After the juvenile fish were raised for 2 days, […] of Egg water was removed and ethyl 3-aminobenzoate methanesulfonate (Sigma-Aldrich Japan; 0.4 mg/mL, 10 μL) was added to euthanize the fish.
7) Nano-Glo (registered trademark) Luciferase assay Substrate (Promega Corporation) was added to Nano-Glo (registered trademark) Luciferase assay buffer (Promega Corporation) in a ratio of 1:50 and 100 μL of the resultant solution was added to each of the wells.
8) Shaking was carried out by use of BIO-Mixer (Biotech Japan Co., Ltd.) for one hour and luminescence of NanoLuc (registered trademark) was measured by use of EnVision (PerkinElmer Co., Ltd., Japan).
Individual concentration groups were compared to the DMSO control group by the Dunnett's test.

Human RARα = target: T1, Human RARα (Homo sapiens, UniProt P10276); assay: RAR agonistic activity, luciferase reporter (3xDR5: luc) in HEK293A cells; conditions: concentration exhibiting luminescence of 1000% of Negative control; 24 hours exposure; N=4
T1 sequence (P10276 1-462): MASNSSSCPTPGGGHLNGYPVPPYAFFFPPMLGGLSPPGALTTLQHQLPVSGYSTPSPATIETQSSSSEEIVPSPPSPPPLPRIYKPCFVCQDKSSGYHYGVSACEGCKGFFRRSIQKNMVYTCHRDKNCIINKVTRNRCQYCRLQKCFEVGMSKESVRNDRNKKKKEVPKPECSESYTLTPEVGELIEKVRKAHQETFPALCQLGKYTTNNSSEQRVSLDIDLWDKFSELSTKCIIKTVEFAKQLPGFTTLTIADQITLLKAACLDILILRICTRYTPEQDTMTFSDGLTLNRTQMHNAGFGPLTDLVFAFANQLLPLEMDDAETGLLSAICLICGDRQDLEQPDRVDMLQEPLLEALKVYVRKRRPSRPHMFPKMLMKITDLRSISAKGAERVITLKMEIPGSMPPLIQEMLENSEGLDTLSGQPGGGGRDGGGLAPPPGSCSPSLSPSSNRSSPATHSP
Experimental: (§1) RAR agonistic activity was measured in the following procedure.
(§2) 1) HEK293A cells (Invitrogen), which functionally co-express Human RARα, Human RARβ and Human RARγ, were prepared by adding Lipofectamine (registered trademark) 2000 Transfection Reagent (Thermo Fisher Scientific) to an RAR synthetic response element luciferase reporter construct (3xDR5: luc) in accordance with the method described in the manual attached to the kit.
(§3) 3) Twenty-four hours after exposure to a compound, luminescence from the cells was measured by using PICCA JEAN (registered trademark) luminescence kit (TOYO B-Net CO., LTD.) and EnVision (PerkinElmer Corporation, Japan) (N=4).
(§4) In evaluation of RAR agonistic activity, provided that the measurement value (Negative control) of luminescence from the cells with no addition of a compound was determined as 100%, the RAR agonistic activity (%) of a test substance was calculated in accordance with the following expression. The average value thereof was plotted versus the concentration of a test substance. RAR agonistic activity (%)=(measurement value of sample well÷average value of Negative control)×100

Human RARβ = target: T2, Human RARβ (Homo sapiens, UniProt P10826); assay: as above; conditions: concentration exhibiting luminescence of 1000% of Negative control; 24 hours exposure; N=4
T2 sequence (P10826 1-448 isoform P10826-2): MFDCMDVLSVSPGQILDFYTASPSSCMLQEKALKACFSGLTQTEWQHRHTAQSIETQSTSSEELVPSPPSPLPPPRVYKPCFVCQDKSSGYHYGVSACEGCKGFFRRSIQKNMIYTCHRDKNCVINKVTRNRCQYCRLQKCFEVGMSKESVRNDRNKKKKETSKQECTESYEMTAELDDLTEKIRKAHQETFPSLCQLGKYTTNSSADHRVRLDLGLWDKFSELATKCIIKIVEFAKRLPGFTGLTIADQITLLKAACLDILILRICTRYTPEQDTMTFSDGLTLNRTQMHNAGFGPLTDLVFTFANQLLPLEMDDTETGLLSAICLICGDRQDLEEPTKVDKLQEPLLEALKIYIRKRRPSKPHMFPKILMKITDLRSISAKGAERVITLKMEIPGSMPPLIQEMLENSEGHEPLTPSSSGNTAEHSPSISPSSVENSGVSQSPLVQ
Experimental: as §1, §2, §3, §4

Human RARγ = target: T3, Human RARγ (Homo sapiens, UniProt P13631); assay: as above; conditions: concentration exhibiting luminescence of 500% of Negative control; 24 hours exposure; N=4
T3 sequence (P13631 1-454): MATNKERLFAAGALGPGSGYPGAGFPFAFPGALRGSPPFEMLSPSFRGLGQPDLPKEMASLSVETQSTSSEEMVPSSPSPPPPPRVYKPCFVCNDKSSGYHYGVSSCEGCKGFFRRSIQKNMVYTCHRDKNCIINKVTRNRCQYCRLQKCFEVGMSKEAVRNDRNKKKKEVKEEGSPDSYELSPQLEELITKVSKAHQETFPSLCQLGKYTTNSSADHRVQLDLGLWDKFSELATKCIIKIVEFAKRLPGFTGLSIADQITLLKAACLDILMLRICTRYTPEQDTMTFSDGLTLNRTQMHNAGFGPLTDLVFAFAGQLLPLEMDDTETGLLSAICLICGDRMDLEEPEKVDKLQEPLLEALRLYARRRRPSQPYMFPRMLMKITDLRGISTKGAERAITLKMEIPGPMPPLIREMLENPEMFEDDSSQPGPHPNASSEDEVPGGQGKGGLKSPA
Experimental: as §1, §2, §3, §4

[2] = system: transgenic zebrafish Tg (rho: NTR-NanoLuc, my17: DsRed2); assay: Validation: ablation of rod cells by metronidazole, luminescence derived from rod cells; format: in vivo; conditions: 10 mM for 24 hours, day 3 after fertilization
Experimental: Thereafter, rod-cells are gradually regenerated in the zebrafish.
Day 3 after fertilization, the transgenic zebrafish were treated with 10 mM metronidazole (Sigma-Aldrich Japan) for 24 hours and euthanized by adding ethyl 3-aminobenzoate methanesulfonate (Sigma-Aldrich Japan). Luminescence derived from rod cells was measured in accordance with the manual attached to Nano-Glo (registered trademark) Luciferase Assay System (Promega Corporation). […] The resultant transgenic ablated fish were washed with rearing water, and a toxic radical derived from metronidazole was removed. Luminescence derived from the rod cells after 24 and 48 hours was measured. As a result, it was confirmed that rod cells are gradually regenerated over 48 hours (FIG. 3).

[3] = system: pathological zebrafish 2: Tg (rho: NTR-NanoLuc, my17: DsRed2) crossed with Tg (rho: hRHO (Q344X), omp: EGFP); assay: Rod-cell regeneration effect in retinitis pigmentosa model, quantitative evaluation by NanoLuc luminescence; format: in vivo; conditions: N=8 per concentration; Dunnett's test; FIG. 7
Experimental: Pathological model zebrafish, in which rod-cell regeneration can be quantitatively evaluated, were newly prepared using zebrafish known as a retinitis pigmentosa model. The effect of compounds was quantitatively verified in accordance with the following procedure.
1) Quantitative evaluation of rod-cell regeneration was carried out by zebrafish (pathological zebrafish 2) obtained by crossing transgenic Tg (rho: NTR-NanoLuc, my17: DsRed2) and Tg (rho: hRHO (Q344X), omp: EGFP).
Fertilized eggs were collected.
A screening test was repeated 8 times (N=8) at each concentration.
2) After shaking for one hour using BIO-Mixer, the luminescence from NanoLuc (registered trademark) was measured by use of EnVision.

| Molecule | EC50 [1] [nM] | RARα EC1000 (Human RARα) [nM] | RARβ EC1000 (Human RARβ) [nM] | RARγ EC500 (Human RARγ) [nM] | further results |
| --- | --- | --- | --- | --- | --- |
| 4-[(1E)-2-[5,6-dihydro-5,5-dimethyl-8-(2-phenylethynyl)-2naphthalenyl]ethenyl]benzoate [BMS493] |  |  |  |  | precipitation of compound in the assay ([1]; 30 μM): precipitated; toxicity to fish ([1]; 100 μM, cardiac arrest): all fish died; rod-cell regeneration induction activity compared to the DMSO control [1]: did not show rod-cell regeneration induction activity |
| CC1(C)CCC(C)(C)c2cc(Cn3cccn3)c(/C=C/c3ccc(C(=O)O)cc3)cc21 [Palovarotene] | 1210 |  |  |  |  |
| COc1ccc(-c2ccc3cc(C(=O)O)ccc3c2)cc1C12CC3CC(CC(C3)C1)C2 [Adapalene] | > 1000 | 12 | 6.9 | 54 | Activation (% of control) ([1]; at 1000 nM (the maximum concentration evaluated), DMSO = 0%, 1 μM TTNPB = 100%): 39% |
| CC1(C)CCSc2ccc(C#Cc3ccc(C(=O)O)cn3)cc21 [Tazarotenic acid] | 786 | 12 | 4.4 | 48 |  |
| Cc1ncc([N+](=O)[O-])n1CCO [metronidazole] |  |  |  |  | number of rod cells remaining after ablation (luminescence) [2]: 13.5% |
| CC1(C)CCC(C)(C)c2cc(NC(=O)c3ccc(C(=O)O)cc3)ccc21 [Tamibarotene] | 9.08 |  | 79 | 248 | rod-cell regeneration induction activity [1]: strong rod-cell regeneration induction activity; regeneration of rod cells in the retinitis pigmentosa model (luminescence, words) [3]: statistically significant regeneration of rod cells in a dose dependent manner |
| CCOC(=O)c1ccc(C(=O)Nc2ccc3c(c2)C(C)(C)CCC3(C)C)cc1 [Tamibarotene ethyl ester] | 4.9 | 21.8 | 514 | 714 | rod-cell regeneration induction activity [1]: strong rod-cell regeneration induction activity |
| CCOC(=O)c1ccc(C#Cc2ccc3c(c2)C(C)(C)CCS3)nc1 [Tazarotene] | 402 |  |  |  |  |
| CC1=C(/C=C/C(C)=C/C=C/C(C)=C/C(=O)O)C(C)(C)CCC1 [All-trans Retinoic acid] |  |  |  |  | rod-cell regeneration induction activity compared to the DMSO control [1]: significant rod-cell regeneration induction activity in a concentration-dependent manner |
| COC(=O)c1ccc(C(=O)Nc2ccc3c(c2)C(C)(C)CCC3(C)C)cc1 [Tamibarotene methyl ester] | 85.4 | 0.91 | 29.1 | 72.8 |  |
